Our source for the viability, T/C values is PubChem BioAssay AID1963837 (Molecular Pharmacology Branch, DTP, NCI, 2024).
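Also: spheroids exposed to drugs for seven days before readout.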

The first assay has as its system 843126-344-R-J1-PDC complex spheroid viability. In words: Anticancer human tumor 843126-344-R-J1-PDC patient-derived melanoma cell line growth inhibition [POLQ]. To be noted: second compound 3.16 µM; first compound 0.0316 µM; stronger effect = lower value. In short, it runs like this:
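Complex spheroid viability model combining PDC tumour cells with endothelial (HUVEC) and MSC stromal cells. Novobiocin, ART-558 or RP6685 were tested singly and in combination with standard and investigational anticancer drugs. Each was titrated in half-log steps from near clinical Cmax, or from 10 microM where Cmax was unknown.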
Consider `O=C(c1cc(Cc2n[nH]c(=O)c3ccccc23)ccc1F)N1CCN(C(=O)C2CC2)CC1` + Cc1cccc(N(C)C(=O)C2C(O)CCN2c2nc(C)cc(C(F)(F)F)c2C#N)c1, for which the viability, T/C (in general, the ratio of treated to control) was 91.5%.

As to `O=c1[nH]cc(F)c(=O)[nH]1` + Cc1cccc(N(C)C(=O)C2C(O)CCN2c2nc(C)cc(C(F)(F)F)c2C#N)c1, the viability, T/C was 99.3%.

The same assay, now with this note: second compound 3.16 µM; first compound 0.1 µM; stronger effect = lower value.
As for `C=CCn1c(=O)c2cnc(Nc3ccc(N4CCN(C)CC4)cc3)nc2n1-c1cccc(C(C)(C)O)n1` + Cc1cccc(N(C)C(=O)C2C(O)CCN2c2nc(C)cc(C(F)(F)F)c2C#N)c1, the viability, T/C is 112%.

Turning to `CCc1c2c(nc3ccc(O)cc13)-c1cc3c(c(=O)n1C2)COC(=O)[C@]3(O)CC` + Cc1cccc(N(C)C(=O)C2C(O)CCN2c2nc(C)cc(C(F)(F)F)c2C#N)c1, the viability, T/C was 67.7%.

Turning to `O=C(c1cc(Cc2n[nH]c(=O)c3ccccc23)ccc1F)N1CCN(C(=O)C2CC2)CC1` + Cc1cccc(N(C)C(=O)C2C(O)CCN2c2nc(C)cc(C(F)(F)F)c2C#N)c1, the viability, T/C is 83.3%.

On to `O=c1[nH]cc(F)c(=O)[nH]1` + Cc1cccc(N(C)C(=O)C2C(O)CCN2c2nc(C)cc(C(F)(F)F)c2C#N)c1, for which the viability, T/C was 94.5%.

Still in this assay, the particulars now being: second compound 3.16 µM; first compound 0.316 µM; stronger effect = lower value.
As for `C=CCn1c(=O)c2cnc(Nc3ccc(N4CCN(C)CC4)cc3)nc2n1-c1cccc(C(C)(C)O)n1` + Cc1cccc(N(C)C(=O)C2C(O)CCN2c2nc(C)cc(C(F)(F)F)c2C#N)c1, the viability, T/C is 113%.

`CCc1c2c(nc3ccc(O)cc13)-c1cc3c(c(=O)n1C2)COC(=O)[C@]3(O)CC` + Cc1cccc(N(C)C(=O)C2C(O)CCN2c2nc(C)cc(C(F)(F)F)c2C#N)c1: the viability, T/C was 66.1%.

In the case of `O=C(c1cc(Cc2n[nH]c(=O)c3ccccc23)ccc1F)N1CCN(C(=O)C2CC2)CC1` + Cc1cccc(N(C)C(=O)C2C(O)CCN2c2nc(C)cc(C(F)(F)F)c2C#N)c1, the viability, T/C is 88.8%.

For the compound `O=c1[nH]cc(F)c(=O)[nH]1` + Cc1cccc(N(C)C(=O)C2C(O)CCN2c2nc(C)cc(C(F)(F)F)c2C#N)c1, the viability, T/C was 113%.

The same assay, now with this note: second compound 3.16 µM; first compound 1 µM; stronger effect = lower value.
As to `C=CCn1c(=O)c2cnc(Nc3ccc(N4CCN(C)CC4)cc3)nc2n1-c1cccc(C(C)(C)O)n1` + Cc1cccc(N(C)C(=O)C2C(O)CCN2c2nc(C)cc(C(F)(F)F)c2C#N)c1, the viability, T/C is 89.3%.

With `CCc1c2c(nc3ccc(O)cc13)-c1cc3c(c(=O)n1C2)COC(=O)[C@]3(O)CC` + Cc1cccc(N(C)C(=O)C2C(O)CCN2c2nc(C)cc(C(F)(F)F)c2C#N)c1, the viability, T/C was 45.7%.

For `O=C(c1cc(Cc2n[nH]c(=O)c3ccccc23)ccc1F)N1CCN(C(=O)C2CC2)CC1` + Cc1cccc(N(C)C(=O)C2C(O)CCN2c2nc(C)cc(C(F)(F)F)c2C#N)c1, the viability, T/C is 89.6%.

`O=c1[nH]cc(F)c(=O)[nH]1` + Cc1cccc(N(C)C(=O)C2C(O)CCN2c2nc(C)cc(C(F)(F)F)c2C#N)c1: the viability, T/C is 95.8%.

The same assay, now with this note: second compound 3.16 µM; first compound 3.16 µM; stronger effect = lower value.
On to `O=C(c1cc(Cc2n[nH]c(=O)c3ccccc23)ccc1F)N1CCN(C(=O)C2CC2)CC1` + Cc1cccc(N(C)C(=O)C2C(O)CCN2c2nc(C)cc(C(F)(F)F)c2C#N)c1, for which the viability, T/C was 84.2%.

On to `O=c1[nH]cc(F)c(=O)[nH]1` + Cc1cccc(N(C)C(=O)C2C(O)CCN2c2nc(C)cc(C(F)(F)F)c2C#N)c1, for which the viability, T/C is 103%.

Staying with this assay, now noted: second compound 3.16 µM; first compound 10 µM; stronger effect = lower value.
Take `O=C(c1cc(Cc2n[nH]c(=O)c3ccccc23)ccc1F)N1CCN(C(=O)C2CC2)CC1` + Cc1cccc(N(C)C(=O)C2C(O)CCN2c2nc(C)cc(C(F)(F)F)c2C#N)c1: the viability, T/C was 71.2%.

Consider `O=c1[nH]cc(F)c(=O)[nH]1` + Cc1cccc(N(C)C(=O)C2C(O)CCN2c2nc(C)cc(C(F)(F)F)c2C#N)c1, for which the viability, T/C is 91.5%.

The assay is the same for the next values; noted with them: second compound 10 µM; first compound 0.00316 µM; stronger effect = lower value.
Consider `C=CCn1c(=O)c2cnc(Nc3ccc(N4CCN(C)CC4)cc3)nc2n1-c1cccc(C(C)(C)O)n1` + Cc1cccc(N(C)C(=O)C2C(O)CCN2c2nc(C)cc(C(F)(F)F)c2C#N)c1, for which the viability, T/C is 105%.

As to `CCc1c2c(nc3ccc(O)cc13)-c1cc3c(c(=O)n1C2)COC(=O)[C@]3(O)CC` + Cc1cccc(N(C)C(=O)C2C(O)CCN2c2nc(C)cc(C(F)(F)F)c2C#N)c1, the viability, T/C was 64.8%.

Staying with this assay, now noted: second compound 10 µM; first compound 0.01 µM; stronger effect = lower value.
In the case of `C=CCn1c(=O)c2cnc(Nc3ccc(N4CCN(C)CC4)cc3)nc2n1-c1cccc(C(C)(C)O)n1` + Cc1cccc(N(C)C(=O)C2C(O)CCN2c2nc(C)cc(C(F)(F)F)c2C#N)c1, the viability, T/C is 89%.

Turning to `CCc1c2c(nc3ccc(O)cc13)-c1cc3c(c(=O)n1C2)COC(=O)[C@]3(O)CC` + Cc1cccc(N(C)C(=O)C2C(O)CCN2c2nc(C)cc(C(F)(F)F)c2C#N)c1, the viability, T/C was 68.3%.

The same assay, now with this note: second compound 10 µM; first compound 0.0316 µM; stronger effect = lower value.
As to `C=CCn1c(=O)c2cnc(Nc3ccc(N4CCN(C)CC4)cc3)nc2n1-c1cccc(C(C)(C)O)n1` + Cc1cccc(N(C)C(=O)C2C(O)CCN2c2nc(C)cc(C(F)(F)F)c2C#N)c1, the viability, T/C is 94.3%.

Consider `CCc1c2c(nc3ccc(O)cc13)-c1cc3c(c(=O)n1C2)COC(=O)[C@]3(O)CC` + Cc1cccc(N(C)C(=O)C2C(O)CCN2c2nc(C)cc(C(F)(F)F)c2C#N)c1, for which the viability, T/C is 67%.

Consider `O=C(c1cc(Cc2n[nH]c(=O)c3ccccc23)ccc1F)N1CCN(C(=O)C2CC2)CC1` + Cc1cccc(N(C)C(=O)C2C(O)CCN2c2nc(C)cc(C(F)(F)F)c2C#N)c1, for which the viability, T/C is 83.8%.

`O=c1[nH]cc(F)c(=O)[nH]1` + Cc1cccc(N(C)C(=O)C2C(O)CCN2c2nc(C)cc(C(F)(F)F)c2C#N)c1: the viability, T/C was 91.1%.

Staying with this assay, now noted: second compound 10 µM; first compound 0.1 µM; stronger effect = lower value.
With `C=CCn1c(=O)c2cnc(Nc3ccc(N4CCN(C)CC4)cc3)nc2n1-c1cccc(C(C)(C)O)n1` + Cc1cccc(N(C)C(=O)C2C(O)CCN2c2nc(C)cc(C(F)(F)F)c2C#N)c1, the viability, T/C was 94.1%.

For `CCc1c2c(nc3ccc(O)cc13)-c1cc3c(c(=O)n1C2)COC(=O)[C@]3(O)CC` + Cc1cccc(N(C)C(=O)C2C(O)CCN2c2nc(C)cc(C(F)(F)F)c2C#N)c1, the viability, T/C is 66.2%.

For `O=C(c1cc(Cc2n[nH]c(=O)c3ccccc23)ccc1F)N1CCN(C(=O)C2CC2)CC1` + Cc1cccc(N(C)C(=O)C2C(O)CCN2c2nc(C)cc(C(F)(F)F)c2C#N)c1, the viability, T/C is 102%.

`O=c1[nH]cc(F)c(=O)[nH]1` + Cc1cccc(N(C)C(=O)C2C(O)CCN2c2nc(C)cc(C(F)(F)F)c2C#N)c1: the viability, T/C is 85.8%.

The same assay, now with this note: second compound 10 µM; first compound 0.316 µM; stronger effect = lower value.
In the case of `C=CCn1c(=O)c2cnc(Nc3ccc(N4CCN(C)CC4)cc3)nc2n1-c1cccc(C(C)(C)O)n1` + Cc1cccc(N(C)C(=O)C2C(O)CCN2c2nc(C)cc(C(F)(F)F)c2C#N)c1, the viability, T/C was 102%.

In the case of `CCc1c2c(nc3ccc(O)cc13)-c1cc3c(c(=O)n1C2)COC(=O)[C@]3(O)CC` + Cc1cccc(N(C)C(=O)C2C(O)CCN2c2nc(C)cc(C(F)(F)F)c2C#N)c1, the viability, T/C was 58.6%.

As to `O=C(c1cc(Cc2n[nH]c(=O)c3ccccc23)ccc1F)N1CCN(C(=O)C2CC2)CC1` + Cc1cccc(N(C)C(=O)C2C(O)CCN2c2nc(C)cc(C(F)(F)F)c2C#N)c1, the viability, T/C was 85.8%.

As for `O=c1[nH]cc(F)c(=O)[nH]1` + Cc1cccc(N(C)C(=O)C2C(O)CCN2c2nc(C)cc(C(F)(F)F)c2C#N)c1, the viability, T/C was 104%.

The same assay, now with this note: second compound 10 µM; first compound 1 µM; stronger effect = lower value.
For `C=CCn1c(=O)c2cnc(Nc3ccc(N4CCN(C)CC4)cc3)nc2n1-c1cccc(C(C)(C)O)n1` + Cc1cccc(N(C)C(=O)C2C(O)CCN2c2nc(C)cc(C(F)(F)F)c2C#N)c1, the viability, T/C was 83.6%.

In the case of `CCc1c2c(nc3ccc(O)cc13)-c1cc3c(c(=O)n1C2)COC(=O)[C@]3(O)CC` + Cc1cccc(N(C)C(=O)C2C(O)CCN2c2nc(C)cc(C(F)(F)F)c2C#N)c1, the viability, T/C is 47.8%.

For the compound `O=C(c1cc(Cc2n[nH]c(=O)c3ccccc23)ccc1F)N1CCN(C(=O)C2CC2)CC1` + Cc1cccc(N(C)C(=O)C2C(O)CCN2c2nc(C)cc(C(F)(F)F)c2C#N)c1, the viability, T/C was 92.1%.

Turning to `O=c1[nH]cc(F)c(=O)[nH]1` + Cc1cccc(N(C)C(=O)C2C(O)CCN2c2nc(C)cc(C(F)(F)F)c2C#N)c1, the viability, T/C was 102%.

The assay is the same for the next values; noted with them: second compound 10 µM; first compound 3.16 µM; stronger effect = lower value.
`O=C(c1cc(Cc2n[nH]c(=O)c3ccccc23)ccc1F)N1CCN(C(=O)C2CC2)CC1` + Cc1cccc(N(C)C(=O)C2C(O)CCN2c2nc(C)cc(C(F)(F)F)c2C#N)c1: the viability, T/C was 103%.

For the compound `O=c1[nH]cc(F)c(=O)[nH]1` + Cc1cccc(N(C)C(=O)C2C(O)CCN2c2nc(C)cc(C(F)(F)F)c2C#N)c1, the viability, T/C was 111%.

The assay is the same for the next values; noted with them: second compound 10 µM; first compound 10 µM; stronger effect = lower value.
Regarding `O=C(c1cc(Cc2n[nH]c(=O)c3ccccc23)ccc1F)N1CCN(C(=O)C2CC2)CC1` + Cc1cccc(N(C)C(=O)C2C(O)CCN2c2nc(C)cc(C(F)(F)F)c2C#N)c1, the viability, T/C was 78.8%.

Regarding `O=c1[nH]cc(F)c(=O)[nH]1` + Cc1cccc(N(C)C(=O)C2C(O)CCN2c2nc(C)cc(C(F)(F)F)c2C#N)c1, the viability, T/C is 90%.
